According to paper PMC11053447, “Human ABC and SLC Transporters: The Culprit Responsible for Unspecific PSMA-617 Uptake?” (Pharmaceuticals, 2024):
Read-outs that look alike come from different tables or passages of the source.

How the values were obtained:
human BCRP = molecular target: T1, human BCRP (Homo sapiens, UniProt Q9UNQ0); conditions: E3S probe; for ATP dependent transport / Relative ATP dependent transport: mean (n=3) ± SD
T1 sequence (Q9UNQ0 1-655): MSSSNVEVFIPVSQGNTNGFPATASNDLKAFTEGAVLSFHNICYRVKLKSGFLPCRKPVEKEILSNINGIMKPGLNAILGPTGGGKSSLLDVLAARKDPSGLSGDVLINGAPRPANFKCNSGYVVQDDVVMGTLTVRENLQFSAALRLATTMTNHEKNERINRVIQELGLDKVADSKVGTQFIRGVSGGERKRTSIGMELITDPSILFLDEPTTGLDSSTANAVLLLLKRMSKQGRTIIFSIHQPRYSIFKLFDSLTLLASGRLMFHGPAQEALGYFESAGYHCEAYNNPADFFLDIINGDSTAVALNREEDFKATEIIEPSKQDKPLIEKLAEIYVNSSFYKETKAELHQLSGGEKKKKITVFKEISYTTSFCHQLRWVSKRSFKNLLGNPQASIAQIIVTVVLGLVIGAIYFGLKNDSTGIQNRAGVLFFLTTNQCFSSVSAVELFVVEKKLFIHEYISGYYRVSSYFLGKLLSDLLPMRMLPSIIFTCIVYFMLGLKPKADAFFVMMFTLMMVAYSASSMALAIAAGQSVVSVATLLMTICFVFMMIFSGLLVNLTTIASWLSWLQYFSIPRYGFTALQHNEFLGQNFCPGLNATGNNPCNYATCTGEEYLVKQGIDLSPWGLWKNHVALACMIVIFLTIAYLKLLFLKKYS
Procedure: The incubations were carried out in the presence of 4 mM ATP or AMP to distinguish between transporter-mediated uptake and passive diffusion into the vesicles. […] Afterwards, the reaction mixtures were pre-incubated for 15 min at 37 °C for MRP1 or at 32 °C for BCRP, MDR1 and MRP4, respectively. The transporter assay was initiated through the addition of 25 μL of pre-warmed 12 mM MgATP (or 12 mM AMP in assay buffer as a background control). The reactions were quenched through the addition of 200 μL of ice-cold washing buffer and immediate filtration via glass fiber filters mounted onto a 96-well plate (filter plate). The filters were washed (5 × 200 μL of ice-cold washing buffer) and dried, and the amount of probe substrate inside the filtered vesicles was determined using LSC. The experiments were conducted in triplicate.
Calculation of ATP-dependent transport and inhibition for vesicular transport inhibition
For all wells the amount of the translocated probe substrate was determined in counts per minute (cpm).
ATP-dependent transport (pmol/mg protein/min) is calculated for each concentration using the following
𝐴𝑐𝑐𝐴𝑇𝑃 ∙ 𝑉 ∙ 𝐶𝐶 𝐴𝑐𝑐𝐴𝑀𝑃 ∙𝑉 ∙𝐶𝐶
𝐴𝑇𝑃 − 𝑑𝑒𝑝𝑒𝑛𝑑𝑒𝑛𝑡 𝑎𝑐𝑐𝑢𝑚𝑢𝑙𝑎𝑡𝑖𝑜𝑛 = ( 𝑇𝐶𝑃𝑀 𝑠𝑢𝑏) − ( 𝑇𝐶𝑃𝑀 𝑠𝑢𝑏)
• AccATP: probe substrate accumulation with ATP (cpm)
• AccAMP: probe substrate accumulation with AMP (cpm)
• Tcpm: cpm in dosing solution V: volume per well (µL)
• CCsub: probe substrate concentration (µM)
• Prot: total protein per well (mg)
• t: incubation time (min)
Relative ATP-dependent transport (%) values were calculated using the following equation:
𝑅𝑒𝑙𝑎𝑡𝑖𝑣𝑒 𝐴𝑇𝑃 − 𝑑𝑒𝑝𝑒𝑛𝑑𝑒𝑛𝑡 𝑡𝑟𝑎𝑛𝑠𝑝𝑜𝑟𝑡 (%) = 𝐴 − 𝐵 ∙ 100
• A: amount of translocated substrate in the presence of test substance (TS) and ATP
• B: amount of translocated substrate in the presence of test substance (TS) and AMP
• C: amount of translocated substrate in the presence of solvent and ATP
• D: amount of translocated substrate in the presence of solvent and AMP
Relative inhibition (%) is calculated by setting probe substrate transport in the absence of test substance as
𝑅𝑒𝑙𝑎𝑡𝑖𝑣𝑒 𝑖𝑛ℎ𝑖𝑏𝑖𝑡𝑖𝑜𝑛 (%) = 𝐴𝑐𝑐𝑆𝑝𝑒𝑐𝑖𝑓𝑖𝑐,𝑥 ∙100
• Accspecific,x: transporter specific accumulation for a given sample (pmol/mg/min)
• Accspecific,vehicle: transporter specific accumulation for a solvent control (pmol/mg/min)
Data are expressed as m ean
measured in the vesicular transport inhibition assay.
Nominal ATP Relative ATP Relative
Compound concentration [µM] dependent transport dependent transport inhibition [%]
[pmol/mg/min] [% of control]
Data are expressed as mean (n=3) ± SD.

human MATE1 = molecular target: T2, human MATE1 (Homo sapiens, UniProt Q96FL8); experiment: SLC transporter substrate assay, MDCKII-MATE1-Fin vs control MDCKII-CAT-Fin cells
T2 sequence (Q96FL8 1-570): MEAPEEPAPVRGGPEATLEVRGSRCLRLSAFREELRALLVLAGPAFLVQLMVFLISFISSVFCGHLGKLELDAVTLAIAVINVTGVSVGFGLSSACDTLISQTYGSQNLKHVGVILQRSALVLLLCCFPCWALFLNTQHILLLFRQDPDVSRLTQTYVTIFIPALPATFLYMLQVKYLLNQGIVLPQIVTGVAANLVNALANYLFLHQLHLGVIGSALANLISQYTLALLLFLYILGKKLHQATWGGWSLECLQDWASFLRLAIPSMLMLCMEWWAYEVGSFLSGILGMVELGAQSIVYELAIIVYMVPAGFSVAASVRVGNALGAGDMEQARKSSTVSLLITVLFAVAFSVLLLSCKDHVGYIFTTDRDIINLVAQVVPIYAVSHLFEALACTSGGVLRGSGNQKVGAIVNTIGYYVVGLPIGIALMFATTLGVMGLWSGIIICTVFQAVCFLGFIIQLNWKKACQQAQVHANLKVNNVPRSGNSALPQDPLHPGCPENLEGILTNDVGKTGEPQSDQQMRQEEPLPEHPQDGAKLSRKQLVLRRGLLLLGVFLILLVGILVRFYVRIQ
Procedure: The described cells were plated onto standard 24-well tissue culture plates at densities of 5 × 10^5 cells/well. […] Before starting the experiment, the cells were prepared by removing the medium and washing the cells twice with 300 µL of assay buffer. […] The cells were lysed by adding 300 µL of 0.1N NaOH, they were incubated for 10 min at 37 °C and 100 µL samples were taken from all the wells.
The amount of protein in each well was quantified using the BCA kit for protein determination (Sigma-Aldrich, St Louis, MO, USA). Positive controls were performed using a separate 96-well plate format according to Table S8 in SI4.
SI4. Results of transporter substrate assays (SLC)
Table S8: Parameters of positive controls, control cell lines and plating for SLC transporters assays.
KH: Krebs-Henseleit buffer, HBSS: Hank's balanced salt solution, MES: 2 -(N-morpholino) ethanesulfonic acid, cGMP:
Guanosine cyclic phosphate, E3S: Estrone -3-sulfate, Gly-Sar: Glycylsarcosine, MPP+: 1-methyl-4-phenylpyridinium.
Calculation of fold accumulation values for SLC transporter substrate assays The fold accumulation value was defined as the ratio of uptake of the test substance (TS) or probe substrate into transfected and control cells. If the fold accumulation is > 2 and can be inhibited by a known inhibitor of the transporter, the test substance can be considered as a substrate of the respective transporter.
Fold accumulation = UPTTRP
• UPTTRP: accumulated amount of test substance (TS) or probe substrate in transfected cells normalized by protein content […]
• UPTCTRL: accumulated amount of test substance (TS) or probe substrate in control cells normalized by protein content […]
4.1 Multidrug and toxin extrusion protein MATE1
(MDCKII-MATE1-Fin) and control cells (MDCKII-CAT-Fin) applying 2- and 20-minute incubation periods, measured in SLC transporter substrate assay. […] Concentrations are nominal. […]
control cells (MDCKII-CAT-Fin) applying 2- and 20-minute incubation periods, measured in SLC transporter substrate […]
Compound Nominal In MATE1 Fold

[3H]C(c1ccc2ccccc2c1)C([3H])(NC(=O)C1CCC(CNC(=O)CN2CCN(CC(=O)[O-])CCN(CC(=O)[O-])CCN(CC(=O)[O-])CC2)CC1)C(=O)NCCCCC(NC(=O)NC(CCC(=O)O)C(=O)O)C(=O)O.[Lu+3] (stereo not drawn) [([α,β-^3H]Nal)Lu-PSMA-617]
Relative inhibition (human BCRP; test substance 0.30 µM nominal): 1%
ATP dependent transport (human BCRP; test substance 0.30 µM nominal): 23285.00 ± 769.03 pmol/mg/min
Relative ATP dependent transport (human BCRP; test substance 0.30 µM nominal): 98.5 ± 3.67 % of control
Relative inhibition (human BCRP; test substance 3.00 µM nominal): 0%
ATP dependent transport (human BCRP; test substance 3.00 µM nominal): 23687.00 ± 869.33 pmol/mg/min
Relative ATP dependent transport (human BCRP; test substance 3.00 µM nominal): 100.22 ± 4.06 % of control
Accumulation in MATE1 transporter expressing cells (human MATE1; 0.03 µM nominal, 2 min): 0.07 ± 0.01 pmol/mg protein
Accumulation in control cells (human MATE1; 0.03 µM nominal, 2 min): 0.12 ± 0.01 pmol/mg protein
Accumulation, active transport (human MATE1; 0.03 µM nominal, 2 min): -0.05 ± 0.02 pmol/mg protein
Fold accumulation (human MATE1; 0.03 µM nominal, 2 min): 0.60
Accumulation in MATE1 transporter expressing cells (human MATE1; 0.03 µM nominal, 20 min): 0.09 ± 0.00 pmol/mg protein
Accumulation in control cells (human MATE1; 0.03 µM nominal, 20 min): 0.19 ± 0.02 pmol/mg protein
Accumulation, active transport (human MATE1; 0.03 µM nominal, 20 min): -0.10 ± 0.02 pmol/mg protein
Fold accumulation (human MATE1; 0.03 µM nominal, 20 min): 0.49
Accumulation in MATE1 transporter expressing cells (human MATE1; 0.30 µM nominal, 2 min): 0.67 ± 0.05 pmol/mg protein
Accumulation in control cells (human MATE1; 0.30 µM nominal, 2 min): 0.82 ± 0.11 pmol/mg protein
Accumulation, active transport (human MATE1; 0.30 µM nominal, 2 min): -0.15 ± 0.12 pmol/mg protein
Fold accumulation (human MATE1; 0.30 µM nominal, 2 min): 0.81
Accumulation in MATE1 transporter expressing cells (human MATE1; 0.30 µM nominal, 20 min): 0.77 ± 0.12 pmol/mg protein
Accumulation in control cells (human MATE1; 0.30 µM nominal, 20 min): 1.02 ± 0.12 pmol/mg protein
Accumulation, active transport (human MATE1; 0.30 µM nominal, 20 min): -0.26 ± 0.17 pmol/mg protein
Fold accumulation (human MATE1; 0.30 µM nominal, 20 min): 0.75
Substrate assessment (MATE1) (human MATE1; 0.03, 0.30 µM, 2, 20 min): no in vitro substrate
Max. transporter-specific fold accumulation, without inhibitor (human MATE1; 2 min, 0.3 µM): 0.81
